Data: article PMC3574796 (Future medicinal chemistry, 2012)

Tests used:
malaria parasite = conditions: cited from earlier work
[1] = test system: P. falciparum parasites (DV morphology); test: Digestive vacuole phenotype, light microscopy of Giemsa-stained parasites; format: cell-based, Plasmodium falciparum; conditions: 3.3 µM compound

Row | Structure (SMILES) | Antimalarial activity (malaria parasite) | DV phenotype [1]
1 | Nc1cc(Cl)ccc1Cl [2,5-dichloroaniline] | without antimalarial activity | –
2 | CC(C)C[C@H](NC(=O)[C@H]1O[C@@H]1C(=O)O)C(=O)NCCCCN=C(N)N [Compound E64, E64] | – | swollen and dark staining DV phenotype
